# Active and inactive are the calls of the source.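 Rule for the calls: active = liver cell toxicity, with the dose killing half the cells under 10 micromolar; inactive = the rest.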
# System: Fa2N-4 hepatocyte viability, ATP luminescence, 24 h
# Test: cytotoxicity in immortalized human hepatocytes, late-stage follow-up, cytotoxicity control for GPR30 and estrogen receptor ligands, Fa2N-4 cells (AID 623928)
compound,measurement,value
CC(=O)c1ccc2c(c1)[C@@H]1C=CC[C@@H]1[C@H](c1cc3c(cc1Br)OCO3)N2,LC50,> 50 µM (inactive)

# — PubChem BioAssay AID623928 (NMMLSC, 2012)
